Results reported in ChEMBL document CHEMBL1201862, “PubChem BioAssay data set” (2004).
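These data come from cells grown in 96-well plates and exposed to compound for 48 hours at five concentrations. GI50 = concentration required for 50% inhibition of growth.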 Active and inactive are the calls of the source. No stated cut-off is given here; in the data, active = GI50 up to about 1.1 µM and inactive = higher.

Tests used:
Assay in all cases: NCI anticancer screen, dose series, 48 h
[1] = tested on: MDA-N
[2] = tested on: PC-3
[3] = tested on: BT-549
[4] = tested on: HOP-62
[5] = tested on: OVCAR-8
[6] = tested on: Hs-578T
[7] = tested on: OVCAR-4
[8] = tested on: CAKI-1
[9] = tested on: DU-145
[10] = tested on: COLO 205
[11] = tested on: NCI-H522
[12] = tested on: HL-60
[13] = tested on: MDA-MB-231
[14] = tested on: SNB-19
[15] = tested on: LOX IMVI
[16] = tested on: SN12C
[17] = tested on: M14
[18] = tested on: KM12
[19] = tested on: NCI-H460

Structure (SMILES)	GI50 [1]	GI50 [2]	GI50 [3]	GI50 [4]	GI50 [5]	GI50 [6]	GI50 [7]	GI50 [8]	GI50 [9]	GI50 [10]	GI50 [11]	GI50 [12]	GI50 [13]	GI50 [14]	GI50 [15]	GI50 [16]	GI50 [17]	GI50 [18]	GI50 [19]
CC1(C)OC(=O)CC12CCN(Cc1ccccc1)CC2	> 100 µM (inactive)	> 100 µM (inactive)	> 100 µM (inactive)	> 100 µM (inactive)	> 100 µM (inactive)	> 100 µM (inactive)	> 100 µM (inactive)	> 100 µM (inactive)	> 100 µM (inactive)	> 100 µM (inactive)	> 100 µM (inactive)	> 100 µM (inactive)	> 100 µM (inactive)	> 100 µM (inactive)	> 100 µM (inactive)	> 100 µM (inactive)	–	–	–
O=C1/C(=C2\Sc3c(ccc(Cl)c3Cl)C2=O)Sc2c1ccc(Cl)c2Cl	> 100 µM (inactive)	> 100 µM (inactive)	> 100 µM (inactive)	12.6 µM (inactive)	> 100 µM (inactive)	> 100 µM (inactive)	> 100 µM (inactive)	> 100 µM (inactive)	> 100 µM (inactive)	> 100 µM (inactive)	> 100 µM (inactive)	–	> 100 µM (inactive)	> 100 µM (inactive)	–	> 100 µM (inactive)	> 100 µM (inactive)	> 100 µM (inactive)	> 100 µM (inactive)
C/C(=C\c1ccccc1)C(=O)NCc1ccc(C(=O)NCCc2c[nH]c3ccccc23)cc1	> 100 µM (inactive)	54.6 µM (inactive)	> 100 µM (inactive)	82 µM (inactive)	> 100 µM (inactive)	–	86.5 µM (inactive)	> 100 µM (inactive)	> 100 µM (inactive)	37.6 µM (inactive)	69 µM (inactive)	–	> 100 µM (inactive)	> 100 µM (inactive)	61.1 µM (inactive)	> 100 µM (inactive)	> 100 µM (inactive)	33.2 µM (inactive)	25.9 µM (inactive)
CCCCNN	> 100 µM (inactive)	> 100 µM (inactive)	> 100 µM (inactive)	> 100 µM (inactive)	> 100 µM (inactive)	> 100 µM (inactive)	> 100 µM (inactive)	> 100 µM (inactive)	> 100 µM (inactive)	> 100 µM (inactive)	65.3 µM (inactive)	> 100 µM (inactive)	> 100 µM (inactive)	> 100 µM (inactive)	> 100 µM (inactive)	> 100 µM (inactive)	> 100 µM (inactive)	> 100 µM (inactive)	–
c1ccc2c[n+](Cc3ccnc4ccccc34)ccc2c1	> 100 µM (inactive)	> 100 µM (inactive)	> 100 µM (inactive)	> 100 µM (inactive)	> 100 µM (inactive)	> 100 µM (inactive)	> 100 µM (inactive)	> 100 µM (inactive)	> 100 µM (inactive)	67.1 µM (inactive)	> 100 µM (inactive)	–	> 100 µM (inactive)	> 100 µM (inactive)	> 100 µM (inactive)	> 100 µM (inactive)	> 100 µM (inactive)	> 100 µM (inactive)	> 100 µM (inactive)
Cc1ccc(O)c(C(c2ccc(C(c3cc(C)ccc3O)c3cc(C)ccc3O)cc2)c2cc(C)ccc2O)c1	1.52 µM (inactive)	1.59 µM (inactive)	2.01 µM (inactive)	1.92 µM (inactive)	1.81 µM (inactive)	2.39 µM (inactive)	1.79 µM (inactive)	1.56 µM (inactive)	1.74 µM (inactive)	1.33 µM (inactive)	2.08 µM (inactive)	2.26 µM (inactive)	1.25 µM (inactive)	1.52 µM (inactive)	1.69 µM (inactive)	1.65 µM (inactive)	1.8 µM (inactive)	1.67 µM (inactive)	–
NC1=CC(C(=O)c2ccncc2)c2nc3ccccc3nc21 (configuration not stated)	> 100 µM (inactive)	> 100 µM (inactive)	> 100 µM (inactive)	44.2 µM (inactive)	63.5 µM (inactive)	57 µM (inactive)	> 100 µM (inactive)	42.2 µM (inactive)	> 100 µM (inactive)	> 100 µM (inactive)	> 100 µM (inactive)	–	> 100 µM (inactive)	> 100 µM (inactive)	22.7 µM (inactive)	> 100 µM (inactive)	> 100 µM (inactive)	> 100 µM (inactive)	75.5 µM (inactive)
CNc1ncnc2c1cnn2Cc1cn(COCC(O)CO)nn1 (configuration not stated)	> 100 µM (inactive)	> 100 µM (inactive)	> 100 µM (inactive)	> 100 µM (inactive)	> 100 µM (inactive)	0.149 µM (active)	> 100 µM (inactive)	> 100 µM (inactive)	> 100 µM (inactive)	> 100 µM (inactive)	–	> 100 µM (inactive)	> 100 µM (inactive)	> 100 µM (inactive)	> 100 µM (inactive)	> 100 µM (inactive)	> 100 µM (inactive)	> 100 µM (inactive)	–
CC(=O)Oc1ccc(/C=C/C(=O)NCC(NC(=O)/C=C/c2ccc(OC(C)=O)c(OC(C)=O)c2)C(=O)O)cc1OC(C)=O (configuration not stated)	> 100 µM (inactive)	> 100 µM (inactive)	> 100 µM (inactive)	> 100 µM (inactive)	> 100 µM (inactive)	> 100 µM (inactive)	> 100 µM (inactive)	> 100 µM (inactive)	> 100 µM (inactive)	> 100 µM (inactive)	46.8 µM (inactive)	–	> 100 µM (inactive)	> 100 µM (inactive)	97.3 µM (inactive)	> 100 µM (inactive)	> 100 µM (inactive)	> 100 µM (inactive)	> 100 µM (inactive)
COc1cc(/C=C/C(=O)C2(C(=O)/C=C/c3cc(OC)c(OC)c(OC)c3)CCCCC2)cc(OC)c1OC	–	27.2 µM (inactive)	29.6 µM (inactive)	55.6 µM (inactive)	24.1 µM (inactive)	29.6 µM (inactive)	46.6 µM (inactive)	49.4 µM (inactive)	32.7 µM (inactive)	78.9 µM (inactive)	30.1 µM (inactive)	52 µM (inactive)	42.9 µM (inactive)	36.6 µM (inactive)	38.7 µM (inactive)	35.2 µM (inactive)	29.9 µM (inactive)	26.6 µM (inactive)	80.7 µM (inactive)
CC(=O)O[C@@H]1C2=C(C)C=C(O2)[C@H]2O[C@]2(C)C[C@H]2C=C(C(=O)O2)[C@H](OC(C)=O)CC1[C@@]1(C)CO1 (some centres not stated)	30.3 µM (inactive)	32.4 µM (inactive)	21.1 µM (inactive)	23 µM (inactive)	35.4 µM (inactive)	–	27.7 µM (inactive)	24.2 µM (inactive)	31.3 µM (inactive)	14.1 µM (inactive)	3.23 µM (inactive)	–	27.4 µM (inactive)	> 100 µM (inactive)	18.4 µM (inactive)	21.3 µM (inactive)	23.8 µM (inactive)	36.6 µM (inactive)	37 µM (inactive)
O=[N+]([O-])/C(C(Cl)=C(Cl)Cl)=C(\Nc1ccccc1)n1nnc2ccccc21	54.8 µM (inactive)	40.6 µM (inactive)	27 µM (inactive)	30.6 µM (inactive)	> 100 µM (inactive)	20.6 µM (inactive)	17.6 µM (inactive)	> 100 µM (inactive)	–	27 µM (inactive)	–	–	27 µM (inactive)	41.7 µM (inactive)	17.4 µM (inactive)	> 100 µM (inactive)	65 µM (inactive)	20.5 µM (inactive)	77.8 µM (inactive)
Clc1ccccc1-c1nn2c(CCCCCCCCc3nnc4sc(-c5ccccc5Cl)nn34)nnc2s1	> 100 µM (inactive)	> 100 µM (inactive)	> 100 µM (inactive)	> 100 µM (inactive)	> 100 µM (inactive)	> 100 µM (inactive)	> 100 µM (inactive)	> 100 µM (inactive)	> 100 µM (inactive)	> 100 µM (inactive)	77.3 µM (inactive)	–	87.7 µM (inactive)	> 100 µM (inactive)	63.1 µM (inactive)	> 100 µM (inactive)	> 100 µM (inactive)	87.3 µM (inactive)	> 100 µM (inactive)
C1=N\CCN2CCN(CC/N=C\c3ccccc3OCc3cccc(n3)COc3ccccc3/1)CC2	1.11 µM (active)	9.46 µM (inactive)	9.75 µM (inactive)	14.6 µM (inactive)	11.8 µM (inactive)	1.38 µM (inactive)	6.15 µM (inactive)	–	12.8 µM (inactive)	19.6 µM (inactive)	24.2 µM (inactive)	3.16 µM (inactive)	16.4 µM (inactive)	9.91 µM (inactive)	–	10.6 µM (inactive)	7.74 µM (inactive)	8.83 µM (inactive)	38.2 µM (inactive)
c1ccc2c(c1)CCc1c-2n(CCN2CCOCC2)c2ccccc12	> 100 µM (inactive)	19.1 µM (inactive)	> 100 µM (inactive)	68.4 µM (inactive)	> 100 µM (inactive)	12.8 µM (inactive)	> 100 µM (inactive)	22.1 µM (inactive)	> 100 µM (inactive)	37.4 µM (inactive)	13.3 µM (inactive)	–	> 100 µM (inactive)	> 100 µM (inactive)	> 100 µM (inactive)	> 100 µM (inactive)	44 µM (inactive)	13.5 µM (inactive)	26.5 µM (inactive)
CCSC1=CC2(O)N(CCc3ccc(OC)c(OC)c3)C(=O)CC2(C(=O)OC)CC1=O (configuration not stated)	31.3 µM (inactive)	18.7 µM (inactive)	18.4 µM (inactive)	18.2 µM (inactive)	16.6 µM (inactive)	–	35.8 µM (inactive)	70.5 µM (inactive)	18.2 µM (inactive)	77.6 µM (inactive)	–	32.7 µM (inactive)	18.3 µM (inactive)	92.9 µM (inactive)	19.1 µM (inactive)	19.6 µM (inactive)	25.8 µM (inactive)	18.5 µM (inactive)	–
